{"source": "patent US10633630B2", "about": "“Acceleration of Mycobacterium growth” (ST GEORGE'S HOSPITAL MEDICAL SCHOOL, priority 2014, dated 2020)", "key": {"[1]": {"system": "Mycobacterium avium subspecies paratuberculosis (MAP)", "assay": "Screen of TiKa peptide supplements for growth effects on MAP cultures (Example 1)", "format": "cell-based", "conditions": "supplemented at 20 mg/ml (final); over a 20 day period; vs identical inocula with no added supplement", "method": "FX1=reduction in lag phase, FX2=increase in division rate.\nThe lag phase and division rate can be determined using routine methods in the art. Typically, growth and expansion of cells of a bacterial culture is determined by monitoring the optical density (OD) of the culture (e.g. the OD600 or the OD800 as illustrated in the Examples section below). The lag phase and the division rate can be determined from plots of the OD over time.\nUsing Mycobacterium avium subspecies paratuberculosis (MAP) as a target organism a bank of 109 short L enantiomer peptides and one D enantiomer peptide (TiKa 14D) were screened for the ability to supplement defined media (see below) to produce growth effects that produce biomass more rapidly than identical inocula of MAP with no added supplement.\nThe effects can be defined as: • A significant decrease in lag time (i.e the time it takes to recover from subculture and begin growing exponentially). With standard low inoculum this is at least 5 days but there is evidence that this phase can also be greatly extended in low inocula (see FIGS. 3 and 4). • An increase in division rate."}, "[2]": {"assay": "Growth curves at various concentrations of peptide (Example 5)", "format": "cell-based", "conditions": "for doubling time relative to the control / lag phase relative to the control without supplement: above the optimum concentration; for effects on the rate of division: below the optimum concentration; for optimum concentration of supplement: concentrations up to 80 μg/ml tested", "method": "Part (A) presents results for the TiKa 14D peptide and part (B) presents results for the TiKa 102 peptide.\nTiKa 14D and TiKa 102 were tested to identify the optimum concentration of supplement. Results are presented in FIGS. 5A and B for concentrations up to 80 μg/ml. […] Below the optimum concentration, the lag phase was either not affected (10 μg/ml of TiKa 14D) or was inhibited relative to the control (slightly for TiKa 14D at 5 μg/ml and for TiKa 102 at 20 μg/ml)."}, "[3]": {"system": "MTB", "assay": "Time to positivity in BacTAlert liquid media system (Example 4)", "format": "cell-based"}, "[4]": {"system": "Mycobacterium avium subspecies paratuberculosis", "format": "cell-based", "conditions": "TiKa 14D 20 μg/ml"}, "[5]": {"system": "Mycobacterium tuberculosis"}, "[6]": {"system": "cultures with different starting OD600 values", "assay": "Effects of TiKa 14D on cultures with different starting OD600 values (Example 3)", "format": "cell-based", "conditions": "20 μg/ml", "method": "The effects of TiKa 14D on cultures with different starting OD600 values were tested. The TiKa 14D was present at a concentration of 20 μg/ml.\nAs shown in this Figure, at a starting OD600 of 0.2 TiKa 14D reduced the time to reach an OD600 of 0.6 by 7 days relative to a control without the supplement. At a starting OD600 of approximately 0.4, TiKa 14D reduced the time to reach an OD600 of 0.6 by 2 days relative to the control without the supplement."}}, "note": "Non-standard residues stand in square brackets, D forms with d. No end group written: not given here. βAla = NCCC(=O)O"}
{"substance": "RLARIVVIRVAR-BB-K(biotin) [TiKa 103]", "values": [{"measurement": "effect on MAP test culture (decrease in lag time, increase in division rate)", "setting": "[1]", "value": "positive effects"}]}
{"substance": "RRWRIVVIRVRR [TiKa 69]", "values": [{"measurement": "effect on MAP test culture (decrease in lag time, increase in division rate)", "setting": "[1]", "value": "positive effects"}]}
{"substance": "RRWRIVVIRVRR-BB-K(biotin) [TiKa 102]", "values": [{"measurement": "doubling time relative to the control", "setting": "[2]", "value": "still also reduced"}, {"measurement": "lag phase relative to the control without supplement", "setting": "[2]", "value": "still improved"}, {"measurement": "effects on the rate of division", "setting": "[2]", "value": "decreased proportionally"}, {"measurement": "lag phase relative to the control", "setting": "[2]; below the optimum concentration: 20 μg/ml", "value": "inhibited"}, {"measurement": "optimum concentration of supplement", "setting": "[2]", "value": 40, "unit": "µg/mL"}, {"measurement": "effect on MAP test culture (decrease in lag time, increase in division rate)", "setting": "[1]", "value": "positive effects"}]}
{"substance": "RRWRIVVIRVRR-bA-bA-C (RRWRIVVIRVRR[βAla][βAla]C) [TiKa 86]", "values": [{"measurement": "effect on MAP test culture (decrease in lag time, increase in division rate)", "setting": "[1]", "value": "positive effects"}]}
{"substance": "WKIVFWWRR [TiKa 14D]", "values": [{"measurement": "Time to Positivity (TTP) compared to control media", "setting": "[3]", "value": "decreased"}, {"measurement": "effect on growth curve", "setting": "[4]", "value": "positive effects"}, {"measurement": "doubling time relative to the control", "setting": "[2]", "value": "still also reduced"}, {"measurement": "lag phase relative to the control without supplement", "setting": "[2]", "value": "still improved"}, {"measurement": "effects on the rate of division", "setting": "[2]", "value": "decreased proportionally"}, {"measurement": "lag phase relative to the control", "setting": "[2]; below the optimum concentration: 5 μg/ml", "value": "inhibited"}, {"measurement": "lag phase relative to the control", "setting": "[2]; below the optimum concentration: 10 μg/ml", "value": "not affected"}, {"measurement": "optimum concentration of supplement", "setting": "[2]", "value": 20, "unit": "µg/mL"}, {"measurement": "effect on MAP test culture (decrease in lag time, increase in division rate)", "setting": "[1]", "value": "positive effects"}, {"measurement": "effect on growth curve", "setting": "[5]", "value": "positive effects"}, {"measurement": "reduction of the time to reach an OD600 of 0.6 relative to a control without the supplement", "setting": "[6]; starting OD600 of 0.2", "value": 7, "unit": "days"}, {"measurement": "reduction of the time to reach an OD600 of 0.6 relative to a control without the supplement", "setting": "[6]; starting OD600 of approximately 0.4", "value": 2, "unit": "days"}]}
